Results: the NIST ThermoML archive (doi:10.1021/acs.jced.5b00331)
Numbers after ± are expanded uncertainties.

Experiments:
[1] = xn = mol fraction of the nth substance listed; settings: 101 kPa, Liquid; for mass density: Vibrating tube method; for excess molar volume: Direct dilatometry
[2] = 313.15 K; 101.33 kPa; Liquid; Vibrating tube method

With C1CCCCCC1 [cycloheptane] + C1CCCC1 the mass density ([1]; 313.15 K, x2 = 0.4999) was 762.9 ± 0.2 kg/m3.
With C1CCCCC1 [cyclohexane] the mass density [2] was 759.8 ± 0.2 kg/m3.
For CCCCCCCCCCCCCCCCCCCCCC [docosane] + CCCCCCCCCC, the mass density ([1]; 313.15 K, x2 = 0.5001) was 758.9 ± 0.2 kg/m3.
CCCCCCCCCCCCCCCC [hexadecane] showed a mass density [2] of 762.9 ± 0.3 kg/m3.
CCCCCCCCCCCCCCCC [hexadecane] + C1CCCCC1 showed an excess molar volume ([1]; 313.15 K, x2 = 0.0083) of 1.32e-08 ± 2.8e-09 m3/mol, an excess molar volume ([1]; 313.15 K, x2 = 0.03441) of 5.31e-08 ± 2.9e-09 m3/mol and an excess molar volume ([1]; 313.15 K, x2 = 0.0839) of 1.341e-07 ± 3.1e-09 m3/mol. The excess molar volume ([1]; 313.15 K, x2 = 0.1372) was 2.074e-07 ± 3.8e-09 m3/mol, the excess molar volume ([1]; 313.15 K, x2 = 0.2221) was 3.185e-07 ± 5.1e-09 m3/mol and the excess molar volume ([1]; 313.15 K, x2 = 0.3029) was 4.088e-07 ± 6.6e-09 m3/mol. It also gave an excess molar volume ([1]; 313.15 K, x2 = 0.3641) of 4.671e-07 ± 7.7e-09 m3/mol, an excess molar volume ([1]; 313.15 K, x2 = 0.4199) of 5.136e-07 ± 8.8e-09 m3/mol and an excess molar volume ([1]; 313.15 K, x2 = 0.4911) of 5.593e-07 ± 1e-08 m3/mol. The excess molar volume ([1]; 313.15 K, x2 = 0.5316) was 5.779e-07 ± 9.7e-09 m3/mol, the excess molar volume ([1]; 313.15 K, x2 = 0.5632) was 5.878e-07 ± 9.2e-09 m3/mol and the excess molar volume ([1]; 313.15 K, x2 = 0.59) was 5.938e-07 ± 8.6e-09 m3/mol. The excess molar volume ([1]; 313.15 K, x2 = 0.6216) was 5.968e-07 ± 8e-09 m3/mol, the excess molar volume ([1]; 313.15 K, x2 = 0.6527) was 5.956e-07 ± 7.4e-09 m3/mol and the excess molar volume ([1]; 313.15 K, x2 = 0.6834) was 5.888e-07 ± 6.9e-09 m3/mol. For the same compound, the excess molar volume ([1]; 313.15 K, x2 = 0.7073) was 5.731e-07 ± 6.3e-09 m3/mol, the excess molar volume ([1]; 313.15 K, x2 = 0.7163) was 5.728e-07 ± 6.1e-09 m3/mol and the excess molar volume ([1]; 313.15 K, x2 = 0.7223) was 5.731e-07 ± 6.1e-09 m3/mol. The excess molar volume ([1]; 313.15 K, x2 = 0.7489) was 5.558e-07 ± 6.1e-09 m3/mol, the excess molar volume ([1]; 313.15 K, x2 = 0.7508) was 5.513e-07 ± 6.1e-09 m3/mol and the excess molar volume ([1]; 313.15 K, x2 = 0.7749) was 5.318e-07 ± 5.3e-09 m3/mol. It also gave an excess molar volume ([1]; 313.15 K, x2 = 0.8022) of 5.039e-07 ± 4.8e-09 m3/mol, an excess molar volume ([1]; 313.15 K, x2 = 0.8303) of 4.675e-07 ± 4.5e-09 m3/mol and an excess molar volume ([1]; 313.15 K, x2 = 0.8736) of 3.939e-07 ± 4e-09 m3/mol. The excess molar volume ([1]; 313.15 K, x2 = 0.8928) was 3.535e-07 ± 3.9e-09 m3/mol, the excess molar volume ([1]; 313.15 K, x2 = 0.9106) was 3.105e-07 ± 3.9e-09 m3/mol and the excess molar volume ([1]; 313.15 K, x2 = 0.9242) was 2.747e-07 ± 4e-09 m3/mol. The excess molar volume ([1]; 313.15 K, x2 = 0.9453) was 2.13e-07 ± 4e-09 m3/mol, the excess molar volume ([1]; 313.15 K, x2 = 0.9634) was 1.518e-07 ± 4.4e-09 m3/mol and the excess molar volume ([1]; 313.15 K, x2 = 0.9801) was 8.6e-08 ± 4.7e-09 m3/mol. For the same compound, the excess molar volume ([1]; 313.15 K, x2 = 0.988) was 5.32e-08 ± 4.9e-09 m3/mol and the excess molar volume ([1]; 313.15 K, x2 = 0.9948) was 2.3e-08 ± 5e-09 m3/mol.
With CCCCCCCCCCCCCCCCCC [octadecane] + CCCCCCCCCCCCCC the mass density ([1]; 313.15 K, x2 = 0.5001) was 758.4 ± 0.2 kg/m3.
With CCCCCCCCCCCCCCCCCCCCCCCC [tetracosane] + CCCCCCCC the mass density ([1]; 313.15 K, x2 = 0.5) was 758.8 ± 0.3 kg/m3 and the mass density ([1]; 315.65 K, x2 = 0.5) was 757.1 ± 0.3 kg/m3.
